Experiment [1] has as its system apomorphine-induced climbing and apomorphine-induced disruption of swimming. Briefly: Test B: antagonism of apomorphine-induced climbing and apomorphine-induced disruption of swimming. In kind it is in vivo. The settings on record: Mus musculus; oral, female Swiss-Webster mice, 30 min before apomorphine HCl 1.25 mg/kg sc; typical values; read-out: minimum effective dose (decrease in climbing score accompanied by increase in swimming score). Here is the method:
(§1) The compounds of Formula I are antagonists of dopamine D-2 receptors, and as such are predicted to be useful as antipsychotic drugs. D-2 antagonism can be shown by standard tests such as antagonism of [^3 H]-spiperone binding (Test A), and/or antagonism of apomorphine-induced climbing and apomorphine- induced disruption of swimming (Test B).
Female Swiss-Webster mice weighing approximately 20 g were deprived of food for approximately 24 h and then dosed orally with various doses of either the vehicle or test agent over a range of doses (N=20 mice per treatment group). Thirty minutes later they were dosed with apomorphine HCl at 1.25 mg/kg, sc, and placed into climbing cages. The climbing cages were 9 cm wide, 15 cm deep and 30 cm high. One wall had 27 horizontal rungs spaced 1 cm apart. Thirteen minutes after apomorphine each mouse was observed continuously for 1 min and the highest and lowest rung reached by its front paws was recorded. The mean of these two scores was used as the score for that mouse. (The highest and lowest scores were 27 and 0, respectively.) Immediately after the 1-min climbing observation period each mouse was placed into a circular swimming tank for 2 min and the number of swims was counted. The height of the tank was 15 cm and the diameter was 28 cm. A circular obstacle measuring 10.5 cm in diameter and having a height of 17 cm was placed into the center of the tank, creating a circular swimming channel 8.75 cm wide. The water level was 5.5 cm and the water was kept at room temperature. Marks were placed on the floor and side of the tank 180 degrees apart. A "swim" was scored each time a mouse swam from one mark to the other. The mice were observed through overhead mirrors and the number of 180 degree swims was recorded for each mouse. Activity in this test was indicated by a decrease in the climbing score accompanied by an increase in the swimming score at a given dose of the test compound. Typical values of minimum effective doses in this test were 10 mg/kg for the compound of Example 6 and 20 mg/kg for each of the compounds of Examples 15 and 21.

Experiment [2] deals with T1, dopamine (DA) D-2 receptor (Rattus norvegicus, UniProt P61169).
T1 construct: rat striatal membranes were used; from tissue; host or cells: rat striatum (membranes)
T1 sequence (P61169 whole entry): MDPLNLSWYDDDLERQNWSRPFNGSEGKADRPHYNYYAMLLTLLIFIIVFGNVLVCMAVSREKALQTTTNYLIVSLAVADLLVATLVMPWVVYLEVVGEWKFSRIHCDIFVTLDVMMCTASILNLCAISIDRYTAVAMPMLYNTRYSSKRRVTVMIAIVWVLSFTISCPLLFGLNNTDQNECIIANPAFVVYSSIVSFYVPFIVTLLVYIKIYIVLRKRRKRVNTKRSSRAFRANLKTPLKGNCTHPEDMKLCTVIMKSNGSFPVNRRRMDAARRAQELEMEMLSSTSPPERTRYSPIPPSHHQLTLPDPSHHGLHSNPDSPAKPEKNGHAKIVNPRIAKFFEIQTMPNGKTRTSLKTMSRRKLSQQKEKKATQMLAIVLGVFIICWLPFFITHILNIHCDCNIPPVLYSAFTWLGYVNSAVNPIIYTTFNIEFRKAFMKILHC
Briefly: Test A: antagonism of [^3 H]-spiperone binding (D-2 receptor binding assay, rat striatal membranes). The note with it: 0.5 nM [^3 H] spiperone, 40 nM ketanserin, pH 7.7, 37° C., 15 min, typical values, read-out: IC50 (drug concentration which produced a 50% displacement of [^3 H] spiperone).
Description: as §1
The receptor binding assay used to measure affinities of various compounds for the dopamine (DA) D-2 receptor subtype was that described by Saller and Salama in J Pharmacol Exp Ther 236, page 714, 1986.
Specifically, rat striatal membranes were used. Tissue membranes were prepared and washed once in 50 volumes of the appropriate Tris HCl buffer. For the D-2 receptor binding assay, striatal membranes were suspended to a final concentration of 8 mg/ml in 50 mM Tris HCl with 40 nM ketanserin, pH 7.7. Nonspecific binding to D-2 receptors was measured in the presence of 1.0 μM (+)-butaclamol. IC50 s (drug concentration which produced a 50% displacement) for the displacement of 0.5 nM [^3 H] spiperone were determined using at least five concentrations of each drug in triplicate. One-half milliliter of membrane suspension was incubated with the compound of interest or vehicle or nonspecific drug, ligand and appropriate Tris HCl buffer. The final reaction volume totaled 1 ml for each tube and was incubated at 37° C. for 15 min to facilitate binding and ensure equilibrium had been met. A Brandel filtering system equipped with GF/B filters was used to separate bound from free drug. The amount of drug bound to the membranes was assessed using liquid scintillation counting techniques. IC50 values were obtained from a least squares regression of a logit-log transformation of the data. Typical values in this test were, for example, 103 nM (nanomolar) for the compound of Example 6, 84 nM for the compound of Example 15, and 15 nM for the compound of Example 21.

pIC50: −log10 of the molar value.

As to `COc1cccc(C(O)C2CCN(CC34CC(c5ccccc53)c3ccc(Cl)cc34)CC2)c1` (racemic) [Example 15, (R,S)-1-[1-((9RS,10RS)-2-Chloro-9,10-dihydro-9,10-methanoanthracen-9-ylmethyl)-4-piperidyl]-1-(3-methoxyphenyl)methanol], the minimal effective dose in experiment [1] is 20 mg/kg. The pIC50 in experiment [2] was 7.08.

In the case of `COc1ccc(C(O)C2CCN(CC34CC(c5ccccc53)c3ccc(Cl)cc34)CC2)cc1` (racemic) [Example 21, (R,S)-1-[1-((9RS, 10RS)-2-Chloro-9,10-dihydro-9,10-methanoanthracen-9-ylmethyl)-4-piperidyl]-1-(4-methoxyphenyl)methanol], in experiment [1], the minimal effective dose was found to be 20 mg/kg. Moreover, in experiment [2], the pIC50 was 7.82.

On to `OC(c1cccnc1)C1CCN(CC23CC(c4ccccc42)c2ccccc23)CC1` (stereo not drawn) [Example 6, 1-[1-(9,10-Dihydro-9,10-methanoanthracen-9-ylmethyl)-4-piperidyl]-1-(3-pyridyl)methanol], for which the minimal effective dose in experiment [1] amounted to 10 mg/kg. The pIC50 in experiment [2] is 6.99.
